Laboratory results published in US20200023206A1, “SYSTEMS AND METHODS FOR ULTRASOUND MODULATION OF NEURONS” (THE TRUSTEES OF COLUMBIA UNIVERSITY IN THE CITY OF NEW YORK, priority 2016, published 2020).
Several values for one entry are separate records, joined by “and”; a condition that tells them apart may be missing. Identical values can stand only once. Entries after “also recorded” stand apart in the source; their conditions may differ.

Tests used:
[1] = test system: ultrasound-induced currents in HEK cells; experiment: Sodium substitution with NMDG on ultrasound-induced currents (patch clamp); type: cell-based; conditions: N=5 cells
From the text: FIGS. 21A-21B are diagrams illustrating exemplary effects of sodium substitution with N-methyl-d-glucamine (NMDG) on ultrasound-induced currents. FIG. 21A illustrates representative examples of ultrasound-induced currents in control solution (Ringers), NMDG-Ringers (without sodium), and in Ringers washout (black, first stimulus; blue, second; red, third). As embodied herein, the cell was held at −90 mV. Ultrasound stimulation parameters were 3.1 MHz, 1.88 MPa, 25 μs, 1 stimulus, 30 s intervals. FIG. 21B illustrates NMDG substitution on ultrasound-induced currents (N=5 cells). As embodied herein, responses to three stimulus presentations per condition were averaged and normalized to the mean amplitude in the control condition for each cell. Cells were held at −90 mV. […] Additionally or alternatively, and as embodied herein, an extracellular cation, such as sodium, can be used to mediate US-induced inward currents. For example and not limitation, as embodied herein, cells were stimulated with US, first in Ringers solution (with sodium), then in an N-methyl-d-glucamine (NMDG)-based Ringer solution (without sodium). NMDG can be utilized at least in part because most mammalian cation channels can be impermeable to this large cation. As embodied herein, each cell was stimulated with US five times at −90 and +30 mV alternatively. The same stimuli were applied 10 minutes following NMDG replacement of sodium and 10 minutes following washout with Ringers (with sodium). […] The first three responses were used to calculate the mean amplitude of the responses in each condition. With reference to FIGS. 21A and 21B, in 4/5 cells, a reduction in US-activated currents with NMDG substitution was shown; however, in most cases, the effect was not reversible, as shown for example in FIG. 21B. This can be due at least in part because NMDG was not effectively washed out of chamber during the washout period (˜10 minutes). Additionally or alternatively, the lack of reversibility can indicate cellular rundown over the course of the stimulations.

[2] = test system: ultrasound-induced whole-cell currents in HEK cells; experiment: Ruthenium red on ultrasound-induced whole-cell currents (patch clamp, Chamber B+laser); type: cell-based; conditions: RR 10 μM
From the text: FIGS. 20A-20D are diagrams illustrating ruthenium red (RR) on ultrasound (US)-induced currents. FIG. 20A illustrates representative examples of ultrasound-induced currents before (control), during (ruthenium red), and after (washout) RR treatment (black, first stimulus; blue, second; red, third). As embodied herein, cell was held at −90 mV. Ultrasound stimulation parameters were 3.1 MHz, 1.6 MPa, 25 μs, 1 stimulus, 30 s intervals. FIG. 20B illustrates additional representative examples of ultrasound-induced currents with RR treatment. As embodied herein, cell was held at −90 mV. Ultrasound stimulation parameters were the same as FIG. 20A, except the pressure was 1.27 MPa. FIG. 20C illustrates a summary of the drug effects of ruthenium red on ultrasound-induced currents (N=5 cells). As embodied herein, responses to three stimulus presentations per condition were averaged and normalized to the mean amplitude in the control condition for each cell. Experiments were done at −70 mV or −90 mV holding potential. FIG. 20D illustrates HEK cells grouped into two populations according to ultrasound activation thresholds and ruthenium red sensitivity.
For purpose of illustration and not limitation, as embodied herein, system 1700 can be used to measure the pharmacological profile of the ultrasound-induced currents in HEK cells. Ruthenium red (RR) can be used to block non-selective cation channels, including the mechanically activated ion channels Piezol, Piezo2, as well as some TRP channels (TRPA1, TRPV3, TRPV4, TRPV5, TRPV6). As embodied herein, RR (10 μM) can block ultrasound-induced whole-cell currents in HEK cells. For example and not limitation, as embodied herein, each cell was stimulated with ultrasound five times at both −90 mV (or −70 mV) and +30 mV (or +50 mV) alternatively. The same stimulation was applied 10 minutes after RR wash-in and 10 minutes after the RR washout, respectively. […]

SMILES | cells showing reduction in US-activated currents with NMDG substitution ([1]; NMDG-Ringers without sodium, 10 minutes after replacement, held at -90 mV) | cells showing increased response following NMDG replacement ([1]; NMDG-Ringers without sodium, held at -90 mV) | effect of replacement of sodium with NMDG on ultrasound-induced currents ([1]; un-normalized data, P=0.16 paired t test, -90 mV) | effect on ultrasound-induced whole-cell currents ([2]; 10 minutes after wash-in, held at -90 mV or -70 mV, N=5 cells) | number of cells showing enhanced US-induced currents in the presence of RR ([2]; N=5 cells analysed) | number of cells showing reduced US-evoked currents in the presence of RR ([2]; N=5 cells analysed)
CNC[C@H](O)[C@@H](O)[C@H](O)[C@H](O)CO [NMDG, N-methyl-d-glucamine] | Four and 4/5 | one | did not show significant effect |  |  | 
N.N.N.N.N.N.N.N.N.N.N.N.N.N.[Cl-].[Cl-].[Cl-].[Cl-].[Cl-].[Cl-].[O-2].[O-2].[Ru+3].[Ru+3].[Ru+4] [RR, Ruthenium red] |  |  |  | can block; also recorded: varying effects | two | Three
